Each block holds one molecule with its values, some of them ahead of it. The source made the active and inactive calls.
Assays:
[1] = molecular target: T1, Methionyl-tRNA synthetase, putative (Trypanosoma brucei brucei, UniProt Q38C91); assay type: functional, Trypanosoma brucei brucei strain 927/4 GUTat10.1
[2] = molecular target: T1, Methionyl-tRNA synthetase, putative; assay type: functional, Trypanosoma brucei brucei strain 927/4 GUTat10.1; remark: listed apart in the source
[3] = Counterscreen for inhibitors of Trypanosoma brucei methionyl tRNA synthetase (MetRS): Luminescence-based cell-based high throughput dose response assay to identify compounds that are cytotoxic to Jurkat human T lymphocyte cells.; assay type: functional
[4] = molecular target: Aryl hydrocarbon receptor (Homo sapiens, UniProt P35869); conditions: Potency;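 also: confirmatory quantitative high-throughput screen measuring activation of the AhR signaling pathway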
Sequence of Aryl hydrocarbon receptor (P35869 whole entry): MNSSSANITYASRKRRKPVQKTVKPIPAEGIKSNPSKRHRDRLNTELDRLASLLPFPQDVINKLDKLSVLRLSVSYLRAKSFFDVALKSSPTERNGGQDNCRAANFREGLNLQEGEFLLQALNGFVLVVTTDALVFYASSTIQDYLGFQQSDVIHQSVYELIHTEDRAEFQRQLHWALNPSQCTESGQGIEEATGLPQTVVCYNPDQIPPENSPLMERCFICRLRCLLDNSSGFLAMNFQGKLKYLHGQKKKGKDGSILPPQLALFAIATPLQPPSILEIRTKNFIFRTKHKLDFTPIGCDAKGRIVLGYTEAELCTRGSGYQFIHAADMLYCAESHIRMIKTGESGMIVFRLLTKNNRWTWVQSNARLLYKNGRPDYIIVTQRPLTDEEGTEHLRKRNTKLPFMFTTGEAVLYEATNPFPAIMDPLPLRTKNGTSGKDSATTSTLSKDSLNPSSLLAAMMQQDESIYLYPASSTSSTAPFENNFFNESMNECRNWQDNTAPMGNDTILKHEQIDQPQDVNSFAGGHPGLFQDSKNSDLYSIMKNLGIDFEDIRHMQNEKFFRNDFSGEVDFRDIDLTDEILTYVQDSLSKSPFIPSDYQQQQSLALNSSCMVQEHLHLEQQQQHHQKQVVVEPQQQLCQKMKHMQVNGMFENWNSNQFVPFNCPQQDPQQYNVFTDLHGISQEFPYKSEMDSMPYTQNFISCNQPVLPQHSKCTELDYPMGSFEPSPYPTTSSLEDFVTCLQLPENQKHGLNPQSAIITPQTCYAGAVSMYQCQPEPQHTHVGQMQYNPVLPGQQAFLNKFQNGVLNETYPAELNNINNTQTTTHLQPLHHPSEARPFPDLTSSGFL

[5] = molecular target: T2, Low molecular weight phosphotyrosine protein phosphatase (Homo sapiens, UniProt P24666); assay type: functional; conditions: read-out: IC50_Mean
T2 sequence (P24666 whole entry): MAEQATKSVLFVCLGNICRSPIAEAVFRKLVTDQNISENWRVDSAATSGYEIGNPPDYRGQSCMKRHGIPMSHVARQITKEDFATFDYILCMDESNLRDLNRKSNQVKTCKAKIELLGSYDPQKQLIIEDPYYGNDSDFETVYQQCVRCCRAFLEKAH

[6] = molecular target: T3, Calpain-2 catalytic subunit (Sus scrofa, UniProt P43367); test: m-calpain protease blockers, concentration series – biochemical, fluorogenic peptide substrate, dose response (AID 1420); assay type: functional
T3 sequence (P43367 whole entry): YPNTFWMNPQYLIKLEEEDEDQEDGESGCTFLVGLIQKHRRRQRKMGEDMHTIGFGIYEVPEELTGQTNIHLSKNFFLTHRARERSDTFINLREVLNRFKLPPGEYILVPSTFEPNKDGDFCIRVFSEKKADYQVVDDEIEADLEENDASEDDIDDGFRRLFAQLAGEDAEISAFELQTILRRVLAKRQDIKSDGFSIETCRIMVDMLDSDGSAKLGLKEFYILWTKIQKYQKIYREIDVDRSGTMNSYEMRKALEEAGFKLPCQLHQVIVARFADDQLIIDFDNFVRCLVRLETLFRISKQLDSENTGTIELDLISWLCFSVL

[7] = molecular target: T2, Low molecular weight phosphotyrosine protein phosphatase; assay type: functional; conditions: read-out: IC50_Mean; remark: listed apart in the source
[8] = molecular target: Potassium voltage-gated channel subfamily KQT member 2 (Rattus norvegicus, UniProt O88943); test: blockers of KCNQ2 channel current – cell-based, automated electrophysiology, set II, rat KCNQ2, dose response (AID 588637); assay type: functional
Sequence of Potassium voltage-gated channel subfamily KQT member 2 (O88943 whole entry): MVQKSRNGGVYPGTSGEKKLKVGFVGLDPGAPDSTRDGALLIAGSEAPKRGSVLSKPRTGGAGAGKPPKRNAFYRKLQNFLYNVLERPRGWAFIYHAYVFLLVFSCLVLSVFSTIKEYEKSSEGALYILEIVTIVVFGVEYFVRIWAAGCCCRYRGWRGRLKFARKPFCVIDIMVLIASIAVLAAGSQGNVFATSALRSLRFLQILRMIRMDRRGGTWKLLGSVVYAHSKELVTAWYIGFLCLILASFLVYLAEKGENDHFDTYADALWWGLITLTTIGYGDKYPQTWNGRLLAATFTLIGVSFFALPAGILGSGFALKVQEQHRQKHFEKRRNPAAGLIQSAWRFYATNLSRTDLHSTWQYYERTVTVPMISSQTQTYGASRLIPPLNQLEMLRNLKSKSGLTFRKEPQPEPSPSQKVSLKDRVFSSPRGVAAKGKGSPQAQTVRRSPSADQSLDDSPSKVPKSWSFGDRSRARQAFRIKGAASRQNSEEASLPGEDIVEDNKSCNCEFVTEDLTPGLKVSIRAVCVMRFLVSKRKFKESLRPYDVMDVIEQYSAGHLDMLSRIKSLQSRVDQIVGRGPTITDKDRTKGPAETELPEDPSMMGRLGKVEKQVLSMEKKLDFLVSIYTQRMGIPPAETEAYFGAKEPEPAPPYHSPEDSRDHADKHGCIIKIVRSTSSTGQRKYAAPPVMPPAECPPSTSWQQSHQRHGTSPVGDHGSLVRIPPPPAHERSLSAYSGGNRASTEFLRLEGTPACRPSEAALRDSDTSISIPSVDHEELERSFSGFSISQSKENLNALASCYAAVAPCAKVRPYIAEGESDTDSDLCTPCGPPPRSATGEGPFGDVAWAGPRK

[9] = molecular target: Dual specificity protein phosphatase 3 (Homo sapiens, UniProt P51452); test: VHR phosphatase inhibition, dose response, selectivity assay for STEP inhibitor project, biochemical (AID 602374); assay type: functional; conditions: read-out: IC50_Mean
Sequence of Dual specificity protein phosphatase 3 (P51452 whole entry): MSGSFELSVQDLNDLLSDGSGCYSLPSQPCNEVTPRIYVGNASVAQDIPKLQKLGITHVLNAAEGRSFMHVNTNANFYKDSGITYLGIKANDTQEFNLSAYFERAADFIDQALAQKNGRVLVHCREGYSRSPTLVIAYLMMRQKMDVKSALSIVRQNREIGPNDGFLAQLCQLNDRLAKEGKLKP

[10] = molecular target: Tyrosine-protein phosphatase non-receptor type 5 (Homo sapiens, UniProt P54829); test: PTPN5 enzyme inhibition – biochemical, fluorescence intensity, uHTS hits, confirmation (AID 602372); assay type: functional; conditions: read-out: IC50_Mean
Sequence of Tyrosine-protein phosphatase non-receptor type 5 (P54829 whole entry): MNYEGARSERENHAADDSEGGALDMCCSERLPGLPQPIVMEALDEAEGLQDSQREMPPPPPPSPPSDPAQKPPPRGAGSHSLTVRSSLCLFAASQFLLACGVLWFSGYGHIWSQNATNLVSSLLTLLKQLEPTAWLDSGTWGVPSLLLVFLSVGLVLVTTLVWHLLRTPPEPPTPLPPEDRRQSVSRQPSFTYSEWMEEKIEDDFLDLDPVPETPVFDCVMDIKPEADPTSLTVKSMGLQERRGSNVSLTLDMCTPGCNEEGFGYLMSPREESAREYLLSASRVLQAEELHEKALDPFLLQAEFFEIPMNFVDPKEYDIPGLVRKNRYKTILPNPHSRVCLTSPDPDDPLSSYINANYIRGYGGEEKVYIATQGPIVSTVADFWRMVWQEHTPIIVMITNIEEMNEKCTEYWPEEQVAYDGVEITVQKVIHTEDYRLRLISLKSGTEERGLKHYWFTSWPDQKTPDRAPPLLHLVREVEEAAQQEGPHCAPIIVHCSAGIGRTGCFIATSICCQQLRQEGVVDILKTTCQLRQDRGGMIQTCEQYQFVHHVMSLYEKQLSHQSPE

[11] = molecular target: Tyrosine-protein phosphatase non-receptor type 11 (Homo sapiens, UniProt Q06124); test: PTPN11 enzyme inhibitors – biochemical, selectivity assay for STEP inhibitor project, dose response (AID 602367); assay type: functional; conditions: read-out: IC50_Mean
[12] = bead-based luminescence quenchers, dual-tagged ARNT – biochemical, AlphaScreen, cherry-pick, artefact control for ARNT-TACC3 interaction inhibitor project, dose response (AID 651705); assay type: functional;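 also: AlphaScreen bead proximity signal that flags compounds interfering with the detection technology; potency reflects signal decrease which marks the compound as an assay artifact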
[13] = molecular target: T4, Interleukin-8 (Homo sapiens, UniProt P10145); test: Dose Response confirmation of uHTS small molecule hits for cystic fibrosis induced NFkb Inhibitors in a PAF-induced IL8 counterscreen.; assay type: functional; conditions: read-out: IC50_Mean
T4 sequence (P10145 whole entry): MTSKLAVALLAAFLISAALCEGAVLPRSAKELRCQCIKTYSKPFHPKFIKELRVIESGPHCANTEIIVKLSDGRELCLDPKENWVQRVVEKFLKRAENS

[14] = molecular target: T4, Interleukin-8; test: Dose Response confirmation of uHTS small molecule hits for cystic fibrosis induced NFkb Inhibitors in a TNFa-induced IL8 counterscreen.; assay type: functional; conditions: read-out: IC50_Mean

T1 sequence (Q38C91 whole entry): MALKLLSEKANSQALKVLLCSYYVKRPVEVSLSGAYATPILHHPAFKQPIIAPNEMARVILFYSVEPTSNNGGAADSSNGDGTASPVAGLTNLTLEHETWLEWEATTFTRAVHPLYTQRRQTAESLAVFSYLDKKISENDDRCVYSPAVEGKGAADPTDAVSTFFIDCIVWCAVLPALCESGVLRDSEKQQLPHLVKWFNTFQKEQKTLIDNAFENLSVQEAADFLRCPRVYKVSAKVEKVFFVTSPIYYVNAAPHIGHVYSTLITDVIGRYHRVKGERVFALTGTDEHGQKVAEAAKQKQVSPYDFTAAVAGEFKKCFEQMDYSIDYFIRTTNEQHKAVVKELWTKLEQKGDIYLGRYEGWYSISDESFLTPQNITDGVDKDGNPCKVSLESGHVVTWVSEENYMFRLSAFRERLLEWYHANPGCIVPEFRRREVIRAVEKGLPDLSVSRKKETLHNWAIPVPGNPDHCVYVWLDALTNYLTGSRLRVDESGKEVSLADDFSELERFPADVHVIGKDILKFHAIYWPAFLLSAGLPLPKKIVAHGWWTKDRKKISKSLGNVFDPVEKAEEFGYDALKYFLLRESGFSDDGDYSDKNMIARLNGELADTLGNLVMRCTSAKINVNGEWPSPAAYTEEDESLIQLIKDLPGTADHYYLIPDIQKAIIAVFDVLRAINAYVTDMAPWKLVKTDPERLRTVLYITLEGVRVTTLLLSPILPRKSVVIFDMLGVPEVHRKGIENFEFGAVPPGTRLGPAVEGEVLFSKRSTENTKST

Compound: COc1ccccc1NC(=O)c1ccc(-n2ccnc2)c([N+](=O)[O-])c1
- IC50 [1]: 55.4 µM (inactive)
- IC50 [2]: 29 µM (inactive)
- IC50 [3]: 83.3 µM (inactive)

- AC50 [4]: 39.8 µM (inconclusive)
Compound: Oc1ccc(O)c2c(O)cccc12

- IC50 [5]: 9.25 µM (active)
- IC50 [6]: 3.92 µM (not active)
- IC50 [7]: 14 µM (active)
Compound: c1ccc(-c2cc(N3CCCCC3)c3ccccc3n2)cc1

- IC50 [8]: 0.477 µM (active)
Compound: CCOC(=O)N1CCC(N(CCOC)C(=O)Nc2ccc(C)c(C)c2)CC1

Compound: Cc1ccc(Cn2cc(C=O)c(-c3ccc(C)cc3)n2)cc1
- IC50 [9]: 73.9 µM (inactive)
- IC50 [10]: > 80 µM (inactive)
- IC50 [11]: > 80 µM (inactive)

Compound: O=S(=O)(c1ccc(Br)cc1)c1nc(-c2ccco2)oc1NCCCn1ccnc1
- AC50 [12]: 108 µM (active)

- IC50 [13]: 2.06 µM (active)
- IC50 [14]: 3.68 µM (active)
Compound: O=S1(=O)CC=C(CSC(=S)NC2CCS(=O)(=O)C2)C1 (centres undefined)

From ChEMBL document CHEMBL1201862, “PubChem BioAssay data set” (2004)
